Measured values as given in patent US12319683B2, “Azabenzimidazole compounds and pharmaceutical” (NIPPON SHINYAKU CO., LTD., priority 2018, dated 2025).
Structures can show the parent of a compound that is named as a salt.

test system: SD female rats; experiment: Effect on the increase in intravesical pressure induced by electrical stimulation of the pelvic nerve in anesthetized rats; assay type: in vivo, rat; conditions: Rattus norvegicus, iv, 1 h, read-out: Percentage Change (%) Rc of AUC of increase of intravesical pressure (maximum during 1 hour after administration)
Procedure: For evaluation of in vivo effect on neurogenic bladder contraction, effects of the test compounds on the increase in intravesical pressure induced by electrical stimulation of the pelvic nerve in rats were determined according to the following method.
SD female rats (Japan SLC, Inc.) were anesthetized by subcutaneous administration of 1200 mg/kg of urethane (Wako Pure Chemical Corporation), and the lower abdomens of the rats were incised in the midline. After the ureters were ligated and cut at locations proximal to the bladder, a cannula (PE-60, BECTON DICKINSON) for cystometry was inserted into the bladder through the external urethral orifice and fixed with sutures. After injecting saline (about 200 μL) via the cannula inserted into the bladder, the other end of the cannula was connected to a pressure transducer to measure intravesical pressure.
The pelvic nerve near the urinary bladder of the rat was gently separated and dissected under stereomicroscope observation and attached to an electrode for nerve stimulation (K2-14015M-PT, BrainScience idea. Co., Ltd.). The peritoneal cavity of the rat was filled with liquid paraffin (26114-75, NACALAI TESQUE, INC.). After the postoperative rest period, an electrical stimulator (SEN-7203, NIHON KOHDEN CORPORATION) was used to stimulate the pelvic nerve to induce increase in intravesical pressure. The stimulation frequency was 8 Hz, the pulse width was 0.3 ms, and the stimulation time was 10 seconds. The voltage of the electrical stimulator was adjusted so that the increase in intravesical pressure was about 50-70% of that at stimulation with 10 V.
The electric stimulation was repeated with an interval of 10 minutes. After the increase of intravesical pressure induced by electric stimulation was stabilized three times or more, a test compound (dosage 0.3 mg/kg), distigmine bromide (dosage 0.03, 0.1 mg/kg) or a vehicle was intravenously administered at 1.0 mL/kg via the catheter placed into femoral vein. The effect of the test compound on increase of intravesical pressure was measured for 1 hour. Saline was used as a vehicle, and the test compound was dissolved in dimethyl sulfoxide before adding to the vehicle. The final concentration of dimethyl sulfoxide was 10%.
The response data (intravesical pressure) were recorded on a personal computer via data collection and analysis system (PowerLab®, ADInstruments) and analyzed using analysis software (LabChart®, ADInstruments). For each electric stimulation, AUC of increase of intravesical pressure (area under the curve of transition of intravesical pressure) was calculated, and percentage change Rc (unit: %) compared to the value (AUC) before the administration of the test compound was calculated according to the following equation (2). In the equation (2), Ab is AUC before administering a test compound, and Aa is AUC after administering a test compound. In addition, the maximum effect observed during 1 hour after administering the test compound (maximum percentage change Rc) was defined as the effect of the test compound. The higher percentage change Rc, the higher effect on enhancement of bladder contraction force and increase of intravesical pressure. Rc=100×(Aa−Ab)/Ab (2)

Q: For CCOc1cc(-c2cc(N(C)CC3(COC)CCCC3)c3[nH]c(-c4cnc(N5[C@@H]6CC[C@H]5C[C@@H](OCC(=O)O)C6)cn4)nc3n2)cc(C(F)(F)F)n1 [Example 15, Sodium {[(1R,3r,5S)-8-(5-{5-[2-ethoxy-6-(trifluoromethyl)pyridin-4-yl]-7-[{[1-(methoxymethyl)cyclopentyl]methyl}(methyl)amino]-1H-imidazo[4,5-b]pyridin-2-yl}pyrazin-2-yl)-8-azabicyclo[3.2.1]octan-3-yl]oxy}acetate], which change in vivo at 0.3 mg/kg is on record?
A: The change in vivo at 0.3 mg/kg was 276%.

same assay, conditions: Rattus norvegicus, iv, 1 h; anesthetized SD female rats, pelvic nerve electrical stimulation, test compound 0.3 mg/kg intravenously; read-out: Percentage Change (%) Rc of AUC of increase of intravesical pressure (maximum during 1 hour after administration)

Q: Which change in vivo at 0.3 mg/kg does the source give for COCC1(CN(C)c2cc(-c3cnc(C4CC4)c(C(F)(F)F)c3)nc3nc(-c4cnc(N5CCN(CCC(=O)O)C[C@H]5C)cn4)[nH]c23)CCCCC1 [Example 7, 3-[(3R)-4-(5-{5-[6-Cyclopropyl-5-(trifluoromethyl)pyridin-3-yl]-7-[{[1-(methoxymethyl)cyclohexyl]methyl}(methyl)amino]-1H-imidazo[4,5-b]pyridin-2-yl}pyrazin-2-yl)-3-methylpiperazin-1-yl]propanoic acid] here?
A: The change in vivo at 0.3 mg/kg was 608%.

Q: With COCC1(CN(C)c2cc(-c3cnc(C4CC4)c(C(F)(F)F)c3)nc3nc(-c4cnc(N5CCN(CCC(=O)O)C[C@H]5C)cn4)[nH]c23)CCCC1 [Example 20, Sodium 3-[(3R)-4-(5-{5-[6-Cyclopropyl-5-(trifluoromethyl)pyridin-3-yl]-7-[{[1-(methoxymethyl)cyclopentyl]methyl}(methyl)amino]-1H-imidazo[4,5-b]pyridin-2-yl}pyrazin-2-yl)-3-methylpiperazin-1-yl]propanoate] as the compound, how does the change in vivo at 0.3 mg/kg read?
A: Its change in vivo at 0.3 mg/kg is 249%.

Q: Which change in vivo at 0.3 mg/kg does the source give for CCOc1ncc(-c2cc(N(C)CC3(COC)CCC3)c3[nH]c(-c4cnc(N5CCC(C(=O)O)CC5)cn4)nc3n2)cc1C(F)(F)F [Example 42] here?
A: Its change in vivo at 0.3 mg/kg is 119%.

Q: With CCOCC1(CN(C)c2cc(-c3cnc(C4CC4)c(C(F)(F)F)c3)nc3nc(-c4cnc(N5CCN(CCC(=O)O)C[C@H]5C)cn4)[nH]c23)CCCC1 [Example 14, Sodium 3-[(3R)-4-(5-{5-[6-cyclopropyl-5-(trifluoromethyl)pyridin-3-yl]-7-[{[1-(ethoxymethyl)cyclopentyl]methyl}(methyl)amino]-1H-imidazo[4,5-b]pyridin-2-yl}pyrazin-2-yl)-3-methylpiperazin-1-yl]propanoate] as the compound, how does the change in vivo at 0.3 mg/kg read?
A: The change in vivo at 0.3 mg/kg was 400%.

Q: For CCOc1cc(-c2cc(N(C)CC(C)(C)COC)c3[nH]c(-c4cnc(N5CCC(C(=O)O)CC5)cn4)nc3n2)cc(C(F)(F)F)n1 [Example 1, 1-(5-{5-[2-Ethoxy-6-(trifluoromethyl)pyridin-4-yl]-7-[(3-methoxy-2,2-dimethylpropyl)(methyl)amino]-1H-imidazo[4,5-b]pyridin-2-yl}pyrazin-2-yl)piperidine-4-carboxylic acid], which change in vivo at 0.3 mg/kg is on record?
A: The change in vivo at 0.3 mg/kg was 326%.

Q: How did the change in vivo at 0.3 mg/kg turn out when CCOc1cc(-c2cc(N(C)CC3(COC)CCCC3)c3[nH]c(-c4cnc(N5CCC(C(=O)O)CC5)cn4)nc3n2)cc(C(F)(F)F)n1 [Example 2, 1-(5-{5-[2-Ethoxy-6-(trifluoromethyl)pyridin-4-yl]-7-[{[1-(methoxymethyl)cyclopentyl]methyl}(methyl)amino]-1H-imidazo[4,5-b]pyridin-2-yl}pyrazin-2-yl)piperidine-4-carboxylic acid] was run?
A: Its change in vivo at 0.3 mg/kg is 331%.

Q: Which change in vivo at 0.3 mg/kg does the source give for CCOc1cc(-c2cc(N(C)CC3(COC)CCC3)c3[nH]c(-c4cnc(N5CCC(C(=O)O)CC5)cn4)nc3n2)cc(C(F)(F)F)n1 [Example 11, 1-(5-{5-[2-Ethoxy-6-(trifluoromethyl)pyridin-4-yl]-7-[{[1-(methoxymethyl)cyclobutyl]methyl}(methyl)amino]-1H-imidazo[4,5-b]pyridin-2-yl}pyrazin-2-yl)piperidine-4-carboxylic acid dihydrochloride] here?
A: The change in vivo at 0.3 mg/kg was 270%.

Q: Which change in vivo at 0.3 mg/kg does the source give for CCOCC1(CN(C)c2cc(-c3cnc(C4CC4)c(C(F)(F)F)c3)nc3nc(-c4cnc(N5CCC(C(=O)O)CC5)cn4)[nH]c23)CCCC1 [Example 3, 1-(5-{5-[6-Cyclopropyl-5-(trifluoromethyl)pyridin-3-yl]-7-[{[1-(ethoxymethyl)cyclopentyl]methyl}(methyl)amino]-1H-imidazo[4,5-b]pyridin-2-yl}pyrazin-2-yl)piperidine-4-carboxylic acid] here?
A: Its change in vivo at 0.3 mg/kg is 311%.

Q: Which change in vivo at 0.3 mg/kg does the source give for CCOc1ncc(-c2cc(N(C)CC3(COC)CCCC3)c3[nH]c(-c4ccc(N5CCC(C(=O)O)CC5)cc4F)nc3n2)cc1C(F)(F)F [Example 68] here?
A: Its change in vivo at 0.3 mg/kg is 133%.

Q: COCC1(CN(C)c2cc(-c3cnc(C4CC4)c(C(F)(F)F)c3)nc3nc(-c4ccc(OC5CCN(CC(=O)O)CC5)cc4F)[nH]c23)CCCC1 [Example 10, [4-(4-{5-[6-Cyclopropyl-5-(trifluoromethyl)pyridin-3-yl]-7-[{[1-(methoxymethyl)cyclopentyl]methyl}(methyl)amino]-1H-imidazo[4,5-b]pyridin-2-yl}-3-fluorophenoxy)piperidin-1-yl]acetic acid] was tested. Which change in vivo at 0.3 mg/kg did it give?
A: The change in vivo at 0.3 mg/kg was 82.6%.

Q: Which change in vivo at 0.3 mg/kg does the source give for COCC1(CN(C)c2cc(-c3cc(F)cc(C(F)(F)F)c3)nc3nc(-c4cnc(N5CCN(CC(=O)O)CC5)cn4)[nH]c23)CCC1 [Example 37] here?
A: The change in vivo at 0.3 mg/kg was 91.2%.

Q: Which change in vivo at 0.3 mg/kg does the source give for COCC1(CN(C)c2cc(-c3cc(F)cc(C(F)(F)F)c3)nc3nc(-c4cnc(N5CCC(F)(C(=O)O)CC5)cn4)[nH]c23)CCC1 [Example 38] here?
A: Its change in vivo at 0.3 mg/kg is 98.1%.

Q: For COCC1(CN(C)c2cc(-c3cc(C4CC4)nc(C(F)(F)F)c3)nc3nc(-c4cnc(N5CCN(CCC(=O)O)C[C@H]5C)cn4)[nH]c23)CCCCC1 [Example 16, Sodium 3-[(3R)-4-(5-{5-[2-cyclopropyl-6-(trifluoromethyl)pyridin-4-yl]-7-[{[1-(methoxymethyl)cyclohexyl]methyl}(methyl)amino]-1H-imidazo[4,5-b]pyridin-2-yl}pyrazin-2-yl)-3-methylpiperazin-1-yl]propanoate], which change in vivo at 0.3 mg/kg is on record?
A: Its change in vivo at 0.3 mg/kg is 182%.

Q: COC[C@@H]1CN(c2cnc(-c3nc4nc(-c5cnc(C6CC6)c(C(F)(F)F)c5)cc(N(C)CC5(COC)CCCCC5)c4[nH]3)cn2)CCN1CCC(=O)O [Example 8, 3-[(2S)-4-(5-{5-[6-Cyclopropyl-5-(trifluoromethyl)pyridin-3-yl]-7-[{[1-(methoxymethyl)cyclohexyl]methyl}(methyl)amino]-1H-imidazo[4,5-b]pyridin-2-yl}pyrazin-2-yl)-2-(methoxymethyl)piperazin-1-yl]propanoic acid] was tested. Which change in vivo at 0.3 mg/kg did it give?
A: Its change in vivo at 0.3 mg/kg is 374%.

Q: How did the change in vivo at 0.3 mg/kg turn out when COCC1(CN(C)c2cc(-c3cc(C4CC4)nc(C(F)(F)F)c3)nc3nc(-c4cnc(N5CCC(OCC(=O)O)CC5)cn4)[nH]c23)CCCC1 [Example 4, {[1-(5-{5-[2-Cyclopropyl-6-(trifluoromethyl)pyridin-4-yl]-7-[{[1-(methoxymethyl)cyclopentyl]methyl}(methyl)amino]-1H-imidazo[4,5-b]pyridin-2-yl}pyrazin-2-yl)piperidin-4-yl]oxy}acetic acid] was run?
A: The change in vivo at 0.3 mg/kg was 123%.

Q: With COCC1(CN(C)c2cc(-c3cnc(C4CC4)c(C(F)(F)F)c3)nc3nc(-c4cnc(N5CCN(CCC(=O)O)CC5)cn4)[nH]c23)CCCCC1 [Example 6, 3-[4-(5-{5-[6-Cyclopropyl-5-(trifluoromethyl)pyridin-3-yl]-7-[{[1-(methoxymethyl)cyclohexyl]methyl}(methyl)amino]-1H-imidazo[4,5-b]pyridin-2-yl}pyrazin-2-yl)piperazin-1-yl]propanoic acid] as the compound, how does the change in vivo at 0.3 mg/kg read?
A: The change in vivo at 0.3 mg/kg was 571%.

same assay, conditions: anesthetized rats, intravenous; test compound 0.3 mg/kg, distigmine bromide 0.03, 0.1 mg/kg; electrical stimulation of pelvic nerve

Q: For CN(CCCCCCN(C)C(=O)Oc1ccc[n+](C)c1)C(=O)Oc1ccc[n+](C)c1 [distigmine bromide, reference compound], which “enhancement effect on bladder contractility” value is on record?
A: Its value is “showed enhancement of bladder contractility”.

test system: SD female rats; experiment: as above; assay type: in vivo, rat; conditions: intravenous, 0.1 mg/kg

Q: With CN(CCCCCCN(C)C(=O)Oc1ccc[n+](C)c1)C(=O)Oc1ccc[n+](C)c1 [distigmine bromide, reference compound] as the compound, how does the “nicotinic side effect (fasciculation)” value read?
A: Its value is “observed”.
